Patent US20250108038A1 (priority 2023, published 2025)
“And” between values parts separate entries of the source, which are not always exact repeats. Equal values may be shown once. “Also recorded” adds a separate entry of the source.

Legend:
[1] = in vivo; conditions: for plasma concentration of Compound A: Compound A single PO 5.102 mg/kg
Description: Dose solutions were prepared freshly on each day of studies prior to dosing.
The animals were weighed immediately prior to dosing and the dose volume was calculated individually based the obtained body weight and the nominal dose volume. […] The nominal dose volume was 10 mL/kg in both studies.
Cage side observation was performed before and after dosing as well as at each scheduled sample collection time. The observation included appearance, posture, behavior, morbidity and mortality. Abnormal findings, if any, are required to be recorded in the study record and communicated with study director, veterinarian, and Supernus if necessary.
Approximately 40 μL blood was collected at each scheduled time point from saphenous veins. The actual sample collection time was within 1 min. of the nominal time for collections prior to or at 1 hour, and within 5% of the nominal values for collections post 1 hour.
The blood samples were placed in pre-labeled micro-centrifuge tubes containing K2EDTA as anticoagulant and kept on ice before they were processed to plasma within 30 minutes of collection by centrifugation at 4° C., 3000 g for 5 minutes. The plasma samples were stored at −70±10° C. until LC-MS/MS analysis.
Plasma concentrations below the LLOQ prior to Tmax were set to zero, and those after Tmax were excluded from PK calculation. The nominal dose and the nominal sample collection time were used for the calculation. The values of plasma concentrations and PK parameters are reported to three significant figures. The average values of each treatment group are presented as mean±SD.

[2] = molecular target: T1, BCRP (Homo sapiens, UniProt Q9UNQ0); test: Vesicular transport inhibition assay, BCRP (estrone-3-sulfate)
T1 sequence (Q9UNQ0 1-655): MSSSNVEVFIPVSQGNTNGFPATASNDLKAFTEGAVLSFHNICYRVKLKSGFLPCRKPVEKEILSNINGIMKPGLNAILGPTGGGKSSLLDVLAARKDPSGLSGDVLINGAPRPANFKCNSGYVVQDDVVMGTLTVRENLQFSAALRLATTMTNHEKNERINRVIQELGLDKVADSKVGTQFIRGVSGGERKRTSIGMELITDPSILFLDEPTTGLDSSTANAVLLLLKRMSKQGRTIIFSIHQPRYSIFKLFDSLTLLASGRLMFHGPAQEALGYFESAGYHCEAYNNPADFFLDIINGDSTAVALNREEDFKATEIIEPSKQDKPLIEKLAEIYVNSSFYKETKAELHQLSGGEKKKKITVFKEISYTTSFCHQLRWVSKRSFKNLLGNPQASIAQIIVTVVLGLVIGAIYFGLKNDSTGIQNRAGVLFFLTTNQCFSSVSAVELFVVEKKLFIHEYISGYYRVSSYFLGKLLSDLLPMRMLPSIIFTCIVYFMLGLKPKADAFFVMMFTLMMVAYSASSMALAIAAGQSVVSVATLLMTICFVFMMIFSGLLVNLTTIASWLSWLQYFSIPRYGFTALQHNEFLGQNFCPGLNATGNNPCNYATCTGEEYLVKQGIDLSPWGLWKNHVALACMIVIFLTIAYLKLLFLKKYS
Description: (§1) Vesicular transport assays were performed with inside-out membrane vesicles prepared from cells overexpressing human ABC (efflux) transporters. The transporters were expressed by SOLVO Biotechnology in mammalian (HEK293) cells. The mammalian cells were stably transfected with the ABC transporter of interest. The assays were conducted according to the actual SOLVO VT assay protocols (PR-ASY-VT-General Protocol for Vesicular Transport Inhibition Assays).
(§2) The membrane vesicle suspension was mixed with the ice-cold transport buffer, then the probe substrate solution was added. […] (for BCRP and MDR1). […] Reactions were quenched by the addition of 200 μL of ice-cold washing buffer and immediate filtration via glass fiber filters mounted to a 96-well plate (filter plate). The filters were washed (5×200 μL of ice-cold washing buffer), dried and the amount of substrate inside the filtered vesicles was determined by liquid scintillation counting.
(§3) Incubation with AMP provided background activity values for all data points.

[3] = molecular target: MDR1 (Homo sapiens, UniProt P08183); test: Vesicular transport inhibition assay, MDR1 (N-methyl quinidine)
Description: as §1, §2, §3

[4] = male, CD-1, mouse, in vivo, po, 5.102 mg/kg
[5] = 2-concentration assay, up to 100 μM (Compound A up to 50 μM)

Chain of MDR1 (P08183 whole entry): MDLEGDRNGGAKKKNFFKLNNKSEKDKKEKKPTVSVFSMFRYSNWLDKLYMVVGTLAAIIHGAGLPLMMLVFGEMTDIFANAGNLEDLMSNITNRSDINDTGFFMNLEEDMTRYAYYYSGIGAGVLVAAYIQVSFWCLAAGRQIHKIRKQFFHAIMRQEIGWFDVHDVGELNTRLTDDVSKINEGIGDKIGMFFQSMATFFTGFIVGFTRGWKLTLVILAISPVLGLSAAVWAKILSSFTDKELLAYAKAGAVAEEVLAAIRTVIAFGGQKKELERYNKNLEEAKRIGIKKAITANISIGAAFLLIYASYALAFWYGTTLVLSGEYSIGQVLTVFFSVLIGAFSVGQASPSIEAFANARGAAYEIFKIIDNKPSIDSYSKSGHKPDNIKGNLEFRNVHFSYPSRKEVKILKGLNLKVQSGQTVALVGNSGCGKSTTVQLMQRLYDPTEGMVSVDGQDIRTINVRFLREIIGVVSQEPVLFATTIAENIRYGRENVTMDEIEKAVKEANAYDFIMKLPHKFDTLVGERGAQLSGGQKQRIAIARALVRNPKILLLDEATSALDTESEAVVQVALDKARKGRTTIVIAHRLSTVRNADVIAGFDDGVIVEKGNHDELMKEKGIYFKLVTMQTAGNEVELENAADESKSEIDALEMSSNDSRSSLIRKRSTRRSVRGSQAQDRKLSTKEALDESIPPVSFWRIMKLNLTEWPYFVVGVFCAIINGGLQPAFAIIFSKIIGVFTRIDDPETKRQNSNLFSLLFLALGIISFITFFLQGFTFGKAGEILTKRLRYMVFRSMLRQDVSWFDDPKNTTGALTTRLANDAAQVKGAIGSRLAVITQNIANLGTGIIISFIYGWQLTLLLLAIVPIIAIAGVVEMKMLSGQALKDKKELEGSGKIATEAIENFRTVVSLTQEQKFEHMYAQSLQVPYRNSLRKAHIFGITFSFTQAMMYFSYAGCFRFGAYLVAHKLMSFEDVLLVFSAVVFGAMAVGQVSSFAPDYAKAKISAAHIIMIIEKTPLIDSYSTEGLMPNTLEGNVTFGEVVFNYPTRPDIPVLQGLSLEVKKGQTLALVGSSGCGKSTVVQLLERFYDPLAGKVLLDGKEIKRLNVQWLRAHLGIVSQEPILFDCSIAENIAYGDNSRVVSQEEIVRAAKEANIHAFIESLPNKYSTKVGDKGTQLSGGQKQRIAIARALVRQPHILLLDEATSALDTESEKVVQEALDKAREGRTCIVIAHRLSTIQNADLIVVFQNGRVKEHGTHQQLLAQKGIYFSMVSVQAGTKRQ

OC1(c2ccc(Cl)cc2)c2ccccc2C2=NCCN21 (stereo not drawn) [Compound A, 5-(4-chlorophenyl)-2,3-dihydroimidazo[1,2-b]isoindol-5-ol, reference compound]
plasma concentration of Compound A ([1]; 0.500 h, individual mice, 5.102 mg/kg): 117 ng/mL and 172 ng/mL and 141 ng/mL
plasma concentration of Compound A ([1]; 0.500 h, mean): 143 ng/mL
plasma concentration of Compound A ([1]; 1.00 h, individual mice, 5.102 mg/kg): 77.8 ng/mL and 71.7 ng/mL and 102 ng/mL
plasma concentration of Compound A ([1]; 1.00 h, mean): 83.8 ng/mL
plasma concentration of Compound A ([1]; 2.00 h, individual mice, 5.102 mg/kg): 32.3 ng/mL and 25.2 ng/mL and 24.4 ng/mL
plasma concentration of Compound A ([1]; 2.00 h, mean): 27.3 ng/mL
plasma concentration of Compound A ([1]; 4.00 h, individual mice, 5.102 mg/kg): 9.42 ng/mL and 4.31 ng/mL and 8.99 ng/mL
plasma concentration of Compound A ([1]; 4.00 h, mean): 7.57 ng/mL
plasma concentration of Compound A ([1]; 8.00 h, individual mice): BQL
plasma concentration of Compound A ([1]; 24.0 h, individual mice): BQL
Tmax of Compound A ([1]; male, CD-1, mouse, in vivo, ip, 4.061 mg/kg): 30 min
AUC(0-t) [1, 4]: 179 ± 6.91 ng·h/mL
Cmax [1, 4]: 143 ± 27.6 ng/mL
MRT last [1, 4]: 70.8 ± 6.78 min
Tmax [1, 4]: 30 min
half-life [1, 4]: 53.1 ± 7.8 min
Tmax of Compound A ([1]; male, CD-1, mouse, in vivo, po, 6.645 mg/kg): 15 min
Clinical observation (tolerability) ([1]; mouse, in vivo): well tolerated
Relative ATP-dependent transport ([2]; 5.00 μM nominal): 100.28 ± 5.84 % of control
Relative ATP-dependent transport ([2]; 50.00 μM nominal): 97.83 ± 3.82 % of control
maximum inhibition of BCRP-mediated E3S accumulation [2, 5]: did not inhibit; also recorded: not an in vitro inhibitor
Maximum % inhibition ([2]; BCRP, inside-out membrane vesicles, E3S (1 μM), NIO: No inhibition observed): NIO
inhibition at 5 μM ([2]; human): 0%
inhibition at 50 μM ([2]; human): 2%
Relative ATP-dependent transport ([3]; 5.00 μM nominal): 99.11 ± 9.38 % of control
Relative ATP-dependent transport ([3]; 50.00 μM nominal): 97.83 ± 5.19 % of control
maximum inhibition of MDR1-mediated NMQ accumulation [3, 5]: did not inhibit; also recorded: not an in vitro inhibitor
Maximum % inhibition ([3]; MDR1, inside-out membrane vesicles, NMQ (1 μM), NIO: No inhibition observed): NIO
inhibition at 5 μM ([3]; human, Relative inhibition, 5.00 μM nominal): 1%
inhibition at 50 μM ([3]; human, Relative inhibition, 50.00 μM nominal): 2%
